Values quoted from earlier work in US20020137779A1, “Use of L-2-oxothiazolidine-4-carboxylic acid for the treatment of type 2 diabetes” (Advanced Biochemicals Inc., priority 2001, published 2002).

System: mice
Conditions: oral administration at 9.5 mmol/kg in mice; cited from earlier work

For `CC(=O)Nc1ccc(O)cc1` [acetaminophen, reference compound], the mortality is given as “more than 90%”.
